Data from ChEMBL document CHEMBL3046289, “Synthesis and in vitro antimicrobial activity of some newer quinazolinonesulfonamide linked hybrid heterocyclic entities derived from glycine” (2013).
Values after ≈ are worked out from the molar mass of the structure shown.

Key:
Format in all cases: functional
Candida albicans = assay: Antifungal activity against Candida albicans MTCC 227 assessed as growth inhibition after 48 hr by broth microdilution method; conditions: MTCC 227, 48 h
Aspergillus niger = assay: Antifungal activity against Aspergillus niger MTCC 282 assessed as growth inhibition after 48 hr by broth microdilution method; conditions: MTCC 282, 48 h
Klebsiella pneumoniae = assay: Antibacterial activity against Klebsiella pneumoniae MTCC 139 assessed as growth inhibition after 24 hr by broth microdilution method; conditions: MTCC 139, 24 h
Pseudomonas aeruginosa = assay: Antibacterial activity against Pseudomonas aeruginosa MTCC 1688 assessed as growth inhibition after 24 hr by broth microdilution method; conditions: MTCC 1688, 24 h
Escherichia coli = assay: Antibacterial activity against Escherichia coli MTCC 443 assessed as growth inhibition after 24 hr by broth microdilution method; conditions: MTCC 443, 24 h
Bacillus cereus = assay: Antibacterial activity against Bacillus cereus MTCC 1305 assessed as growth inhibition after 24 hr by broth microdilution method; conditions: MTCC 1305, 24 h
Staphylococcus aureus = assay: Antibacterial activity against Staphylococcus aureus MTCC 2940 assessed as growth inhibition after 24 hr by broth microdilution method; conditions: MTCC 2940, 24 h

| Structure (SMILES) | MIC (Candida albicans) [µg/mL] | MIC (Aspergillus niger) [µg/mL] | MIC (Klebsiella pneumoniae) [µg/mL] | MIC (Pseudomonas aeruginosa) [µg/mL] | MIC (Escherichia coli) [µg/mL] | MIC (Bacillus cereus) [µg/mL] | MIC (Staphylococcus aureus) [µg/mL] |
| --- | --- | --- | --- | --- | --- | --- | --- |
| Nc1ccc(S(=O)(=O)NCc2nc3ccccc3c(=O)n2-c2ccccc2[N+](=O)[O-])cc1 | 65 (≈ 144 µM) | 55 (≈ 122 µM) | 95 (≈ 210 µM) | 75 (≈ 166 µM) | 70 (≈ 155 µM) | 85 (≈ 188 µM) | 75 (≈ 166 µM) |
| COc1ccc(-n2c(CNS(=O)(=O)c3ccc(N)cc3)nc3ccccc3c2=O)cc1 | 55 (≈ 126 µM) | 45 (≈ 103 µM) | 75 (≈ 172 µM) | 75 (≈ 172 µM) | 50 (≈ 115 µM) | 70 (≈ 160 µM) | 60 (≈ 137 µM) |
| Nc1ccc(S(=O)(=O)NCc2nc3ccccc3c(=O)n2-c2ccc(Br)cc2)cc1 | 55 (≈ 113 µM) | 45 (≈ 92.7 µM) | 75 (≈ 155 µM) | 50 (≈ 103 µM) | 50 (≈ 103 µM) | 65 (≈ 134 µM) | 55 (≈ 113 µM) |
| Nc1ccc(S(=O)(=O)NCc2nc3ccccc3c(=O)n2-c2ccccc2)cc1 | 100 (≈ 246 µM) | 90 (≈ 221 µM) | 95 (≈ 234 µM) | 85 (≈ 209 µM) | 80 (≈ 197 µM) | 95 (≈ 234 µM) | 85 (≈ 209 µM) |
| Nc1ccc(S(=O)(=O)NCc2nc3ccccc3c(=O)n2-c2cccc(Cl)c2)cc1 | 55 (≈ 125 µM) | 50 (≈ 113 µM) | 80 (≈ 181 µM) | 55 (≈ 125 µM) | 50 (≈ 113 µM) | 65 (≈ 147 µM) | 55 (≈ 125 µM) |
| Nc1ccc(S(=O)(=O)NCc2nc3ccccc3c(=O)n2-c2ccccc2Br)cc1 | 55 (≈ 113 µM) | 45 (≈ 92.7 µM) | 85 (≈ 175 µM) | 65 (≈ 134 µM) | 55 (≈ 113 µM) | 70 (≈ 144 µM) | 55 (≈ 113 µM) |
| COc1cccc(-n2c(CNS(=O)(=O)c3ccc(N)cc3)nc3ccccc3c2=O)c1 | 50 (≈ 115 µM) | 50 (≈ 115 µM) | 90 (≈ 206 µM) | 85 (≈ 195 µM) | 60 (≈ 137 µM) | 75 (≈ 172 µM) | 80 (≈ 183 µM) |
| Cc1cccc(-n2c(CNS(=O)(=O)c3ccc(N)cc3)nc3ccccc3c2=O)c1 | 95 (≈ 226 µM) | 85 (≈ 202 µM) | 115 (≈ 273 µM) | 85 (≈ 202 µM) | 65 (≈ 155 µM) | 100 (≈ 238 µM) | 85 (≈ 202 µM) |
| Cc1ccc(-n2c(CNS(=O)(=O)c3ccc(N)cc3)nc3ccccc3c2=O)cc1 | 80 (≈ 190 µM) | 75 (≈ 178 µM) | 90 (≈ 214 µM) | 70 (≈ 166 µM) | 65 (≈ 155 µM) | 95 (≈ 226 µM) | 80 (≈ 190 µM) |
| CC(=O)Nc1ccc(S(=O)(=O)NCc2nc3ccccc3c(=O)n2-c2cccc([N+](=O)[O-])c2)cc1 | 75 (≈ 152 µM) | 60 (≈ 122 µM) | 110 (≈ 223 µM) | 95 (≈ 193 µM) | 70 (≈ 142 µM) | 80 (≈ 162 µM) | 80 (≈ 162 µM) |
| CC(=O)Nc1ccc(S(=O)(=O)NCc2nc3ccccc3c(=O)n2Nc2ccccc2)cc1 | 120 (≈ 259 µM) | 105 (≈ 227 µM) | 145 (≈ 313 µM) | 125 (≈ 270 µM) | 115 (≈ 248 µM) | 130 (≈ 280 µM) | 100 (≈ 216 µM) |
| CC(=O)Nc1ccc(S(=O)(=O)NCc2nc3ccccc3c(=O)n2-c2ccc(Br)cc2)cc1 | 60 (≈ 114 µM) | 50 (≈ 94.8 µM) | 90 (≈ 171 µM) | 65 (≈ 123 µM) | 65 (≈ 123 µM) | 95 (≈ 180 µM) | 60 (≈ 114 µM) |
| CC(=O)Nc1ccc(S(=O)(=O)NCc2nc3ccccc3c(=O)n2-c2ccc([N+](=O)[O-])cc2)cc1 | 70 (≈ 142 µM) | 55 (≈ 111 µM) | 105 (≈ 213 µM) | 90 (≈ 182 µM) | 70 (≈ 142 µM) | 85 (≈ 172 µM) | 80 (≈ 162 µM) |
| Nc1ccc(S(=O)(=O)NCc2nc3ccccc3c(=O)n2Nc2ccccc2)cc1 | 115 (≈ 273 µM) | 105 (≈ 249 µM) | 115 (≈ 273 µM) | 95 (≈ 225 µM) | 90 (≈ 214 µM) | 105 (≈ 249 µM) | 100 (≈ 237 µM) |
| Nc1ccc(S(=O)(=O)NCc2nc3ccccc3c(=O)n2-c2cccc([N+](=O)[O-])c2)cc1 | 60 (≈ 133 µM) | 50 (≈ 111 µM) | 90 (≈ 199 µM) | 65 (≈ 144 µM) | 60 (≈ 133 µM) | 85 (≈ 188 µM) | 70 (≈ 155 µM) |
| Nc1ccc(S(N)(=O)=O)cc1 [SULFANILAMIDE] | 60 (≈ 348 µM) | 50 (≈ 290 µM) | 80 (≈ 465 µM) | 65 (≈ 377 µM) | 55 (≈ 319 µM) | 55 (≈ 319 µM) | 50 (≈ 290 µM) |
| CC(=O)N1CCN(c2ccc(OCC3COC(Cn4ccnc4)(c4ccc(Cl)cc4Cl)O3)cc2)CC1 (stereo unspecified) [KETOCONAZOLE] | 50 (≈ 94.1 µM) | 40 (≈ 75.3 µM) | – | – | – | – | – |
| CC1(C)S[C@@H]2[C@H](NC(=O)[C@H](N)c3ccccc3)C(=O)N2[C@H]1C(=O)O [AMPICILLIN] | – | – | 85 (≈ 243 µM) | 55 (≈ 157 µM) | 50 (≈ 143 µM) | 60 (≈ 172 µM) | 45 (≈ 129 µM) |

Results, then the compound that gave them:

| MIC (Candida albicans) [µg/mL] | MIC (Aspergillus niger) [µg/mL] | MIC (Klebsiella pneumoniae) [µg/mL] | MIC (Pseudomonas aeruginosa) [µg/mL] | MIC (Escherichia coli) [µg/mL] | MIC (Bacillus cereus) [µg/mL] | MIC (Staphylococcus aureus) [µg/mL] | Structure (SMILES) |
| --- | --- | --- | --- | --- | --- | --- | --- |
| 90 (≈ 195 µM) | 80 (≈ 173 µM) | 125 (≈ 270 µM) | 120 (≈ 259 µM) | 90 (≈ 195 µM) | 115 (≈ 249 µM) | 100 (≈ 216 µM) | CC(=O)Nc1ccc(S(=O)(=O)NCc2nc3ccccc3c(=O)n2-c2ccccc2C)cc1 |
| 80 (≈ 173 µM) | 75 (≈ 162 µM) | 120 (≈ 259 µM) | 115 (≈ 249 µM) | 80 (≈ 173 µM) | 105 (≈ 227 µM) | 95 (≈ 205 µM) | CC(=O)Nc1ccc(S(=O)(=O)NCc2nc3ccccc3c(=O)n2-c2cccc(C)c2)cc1 |
| 80 (≈ 167 µM) | 70 (≈ 146 µM) | 105 (≈ 219 µM) | 110 (≈ 230 µM) | 80 (≈ 167 µM) | 95 (≈ 199 µM) | 90 (≈ 188 µM) | COc1ccccc1-n1c(CNS(=O)(=O)c2ccc(NC(C)=O)cc2)nc2ccccc2c1=O |
| 70 (≈ 133 µM) | 60 (≈ 114 µM) | 95 (≈ 180 µM) | 75 (≈ 142 µM) | 65 (≈ 123 µM) | 95 (≈ 180 µM) | 70 (≈ 133 µM) | CC(=O)Nc1ccc(S(=O)(=O)NCc2nc3ccccc3c(=O)n2-c2ccccc2Br)cc1 |
| 70 (≈ 145 µM) | 55 (≈ 114 µM) | 105 (≈ 217 µM) | 70 (≈ 145 µM) | 60 (≈ 124 µM) | 95 (≈ 197 µM) | 65 (≈ 135 µM) | CC(=O)Nc1ccc(S(=O)(=O)NCc2nc3ccccc3c(=O)n2-c2cccc(Cl)c2)cc1 |
| 80 (≈ 171 µM) | 55 (≈ 118 µM) | 95 (≈ 204 µM) | 85 (≈ 182 µM) | 75 (≈ 161 µM) | 95 (≈ 204 µM) | 80 (≈ 171 µM) | CC(=O)Nc1ccc(S(=O)(=O)NCc2nc3ccccc3c(=O)n2-c2ccc(F)cc2)cc1 |
| 105 (≈ 234 µM) | 95 (≈ 212 µM) | 130 (≈ 290 µM) | 125 (≈ 279 µM) | 110 (≈ 245 µM) | 115 (≈ 256 µM) | 95 (≈ 212 µM) | CC(=O)Nc1ccc(S(=O)(=O)NCc2nc3ccccc3c(=O)n2-c2ccccc2)cc1 |
| 85 (≈ 182 µM) | 70 (≈ 150 µM) | 95 (≈ 204 µM) | 95 (≈ 204 µM) | 80 (≈ 171 µM) | 105 (≈ 225 µM) | 85 (≈ 182 µM) | CC(=O)Nc1ccc(S(=O)(=O)NCc2nc3ccccc3c(=O)n2-c2ccccc2F)cc1 |
| 70 (≈ 133 µM) | 55 (≈ 104 µM) | 90 (≈ 171 µM) | 70 (≈ 133 µM) | 70 (≈ 133 µM) | 90 (≈ 171 µM) | 65 (≈ 123 µM) | CC(=O)Nc1ccc(S(=O)(=O)NCc2nc3ccccc3c(=O)n2-c2cccc(Br)c2)cc1 |
| 75 (≈ 155 µM) | 60 (≈ 124 µM) | 100 (≈ 207 µM) | 75 (≈ 155 µM) | 70 (≈ 145 µM) | 100 (≈ 207 µM) | 70 (≈ 145 µM) | CC(=O)Nc1ccc(S(=O)(=O)NCc2nc3ccccc3c(=O)n2-c2ccccc2Cl)cc1 |
| 65 (≈ 149 µM) | 55 (≈ 126 µM) | 95 (≈ 218 µM) | 80 (≈ 183 µM) | 65 (≈ 149 µM) | 80 (≈ 183 µM) | 85 (≈ 195 µM) | COc1ccccc1-n1c(CNS(=O)(=O)c2ccc(N)cc2)nc2ccccc2c1=O |
